Data published in patent US20260125371A1, “METHOD FOR INHIBITING CLOSTRIDIOIDES DIFFICILE SPORE GERMINATION” (UNIVERSITY OF NOTRE DAME DU LAC, priority 2022, published 2026).
In brackets after ≈: the same amount, converted by molar mass. Where two headings read alike, the source gives them in different places.

Experiments:
THP-1 cells = test: Lactate dehydrogenase (LDH) cytotoxicity assay; assay type: cell-based, human; details: Homo sapiens, THP-1, 24 h, read-out: LDH (IC50)
[1] = tested on: Bacteroides fragilis HM-709; details: cited from earlier work
[2] = tested on: Bifidobacterium longum HM-846; details: cited from earlier work
Veillonella sp. HM-49 = details: cited from earlier work
C. difficile ATCC 43255 = test: Determination of minimal-inhibitory concentrations (microdilution), C. difficile ATCC 43255; assay type: cell-based, Clostridioides difficile; details: Clostridioides difficile
C. difficile strains = details: cited from earlier work
Eubacterium sp. HM-178 = details: cited from earlier work
S. aureus = test: MIC against S. aureus strains; assay type: cell-based; details: Staphylococcus aureus, ATCC29213, 24 h, S. aureus ATCC 29213, 24 h; read-out: MIC (μg/mL) 24 h
[3] = tested on: Fusobacterium nucleatum HM-992; details: cited from earlier work
[4] = C. difficile strains of Table 4

Oc1ccc(-c2nc(-c3ccc(OC4CCCC4)cc3)no2)cc1 [Compound 2]
IC50 (THP-1 cells): 18 ± 1 µg/mL (≈ 55.8 µM)
MIC [1]: 2 µg/mL (≈ 6.2 µM)
MIC [2]: 1 µg/mL (≈ 3.1 µM)
MIC (Veillonella sp. HM-49): >128 µg/mL
MIC (C. difficile ATCC 43255; ATCC43255, 24 h, C. difficile ATCC 43255, 24 h, read-out: MIC (μg/mL) 24 h): 2 µg/mL (≈ 6.2 µM)
MIC (C. difficile ATCC 43255; ATCC43255, Table 1, strain ATCC 43255, read-out: MIC C. difficile): 2 µg/mL (≈ 6.2 µM)
IMIC50 (101 strains) (C. difficile strains; 101 C. difficile strains): 2 µg/mL
MIC90 (101 strains) (C. difficile strains; 101 C. difficile strains): 4 µg/mL (≈ 12.4 µM)
MIC (C. difficile strains; C. difficile 23828, resistant to FDX): 4 µg/mL (≈ 12.4 µM)
MIC (C. difficile strains; C. difficile 24531, resistant to VAN): 4 µg/mL (≈ 12.4 µM)
MIC (C. difficile strains; C. difficile 26675, resistant to MTZ): 4 µg/mL (≈ 12.4 µM)
MIC (C. difficile strains; C. difficile BAA-1803): 2 µg/mL (≈ 6.2 µM)
MIC (C. difficile strains; C. difficile BAA-1870): 2 µg/mL (≈ 6.2 µM)
MIC (C. difficile strains; C. difficile NR49292): 2 µg/mL (≈ 6.2 µM)
MIC (C. difficile strains; C. difficile NR49294): 2 µg/mL (≈ 6.2 µM)
MIC (C. difficile strains; C. difficile NR49302): 2 µg/mL (≈ 6.2 µM)
MIC (C. difficile strains; C. difficile NR49305): 2 µg/mL (≈ 6.2 µM)
MIC (C. difficile strains; C. difficile NR49310): 4 µg/mL (≈ 12.4 µM)
MIC (C. difficile strains; C. difficile NR49318): 4 µg/mL (≈ 12.4 µM)
MIC50 (C. difficile strains; [4]): 2 µg/mL (≈ 6.2 µM)
MIC90 (C. difficile strains; [4]): 4 µg/mL (≈ 12.4 µM)
MIC90 (C. difficile strains; C. difficile, reported earlier): 4 µg/mL (≈ 12.4 µM)
MIC (C. difficile strains; strain ATCC43598): 2 µg/mL (≈ 6.2 µM)
MIC (C. difficile strains; strain BAA-1801): 2 µg/mL (≈ 6.2 µM)
MIC (C. difficile strains; strain BAA-1803): 2 µg/mL (≈ 6.2 µM)
MIC (C. difficile strains; strain BAA-1804): 2 µg/mL (≈ 6.2 µM)
MIC (C. difficile strains; strain BAA-1812): 2 µg/mL (≈ 6.2 µM)
MIC (C. difficile strains; strain BAA-1814): 2 µg/mL (≈ 6.2 µM)
MIC (C. difficile strains; strain BAA-1870): 2 µg/mL (≈ 6.2 µM)
MIC (C. difficile strains; strain HM-88): 4 µg/mL (≈ 12.4 µM)
MIC (C. difficile strains; strain HM-89): 4 µg/mL (≈ 12.4 µM)
MIC (C. difficile strains; strain HM-745): 4 µg/mL (≈ 12.4 µM)
MIC (C. difficile strains; strain HM-746): 4 µg/mL (≈ 12.4 µM)
MIC (C. difficile strains; strain HM-747): 4 µg/mL (≈ 12.4 µM)
MIC (C. difficile strains; strain NR49292): 2 µg/mL (≈ 6.2 µM)
MIC (C. difficile strains; strain NR49294): 2 µg/mL (≈ 6.2 µM)
MIC (C. difficile strains; strain NR49302): 2 µg/mL (≈ 6.2 µM)
MIC (C. difficile strains; strain NR49305): 2 µg/mL (≈ 6.2 µM)
MIC (C. difficile strains; strain NR49310): 4 µg/mL (≈ 12.4 µM)
MIC (C. difficile strains; strain NR49318): 4 µg/mL (≈ 12.4 µM)
MIC (C. difficile strains; strain NR-13427): 2 µg/mL (≈ 6.2 µM)
MIC (C. difficile strains; strain NR-13428): 4 µg/mL (≈ 12.4 µM)
MIC (C. difficile strains; strain NR-13429): 4 µg/mL (≈ 12.4 µM)
MIC (C. difficile strains; strain NR-13430): 2 µg/mL (≈ 6.2 µM)
MIC (C. difficile strains; strain NR-13431): 2 µg/mL (≈ 6.2 µM)
MIC (C. difficile strains; strain NR-13433): 4 µg/mL (≈ 12.4 µM)
MIC (C. difficile strains; strain NR-13434): 2 µg/mL (≈ 6.2 µM)
MIC (C. difficile strains; strain NR-13435): 4 µg/mL (≈ 12.4 µM)
MIC (C. difficile strains; strain NR-13436): 4 µg/mL (≈ 12.4 µM)
MIC (C. difficile strains; strain NR-13437): 4 µg/mL (≈ 12.4 µM)
MIC (C. difficile strains; strain NR-13438): 2 µg/mL (≈ 6.2 µM)
MIC (C. difficile strains; strain NR-13553): 2 µg/mL (≈ 6.2 µM)
MIC (C. difficile strains; strain NR-32882): 2 µg/mL (≈ 6.2 µM)
MIC (C. difficile strains; strain NR-32883): 2 µg/mL (≈ 6.2 µM)
MIC (C. difficile strains; strain NR-32884): 2 µg/mL (≈ 6.2 µM)
MIC (C. difficile strains; strain NR-32885): 4 µg/mL (≈ 12.4 µM)
MIC (C. difficile strains; strain NR-32886): 2 µg/mL (≈ 6.2 µM)
MIC (C. difficile strains; strain NR-32887): 4 µg/mL (≈ 12.4 µM)
MIC (C. difficile strains; strain NR-32888): 4 µg/mL (≈ 12.4 µM)
MIC (C. difficile strains; strain NR-32889): 4 µg/mL (≈ 12.4 µM)
MIC (C. difficile strains; strain NR-32890): 2 µg/mL (≈ 6.2 µM)
MIC (C. difficile strains; strain NR-32891): 4 µg/mL (≈ 12.4 µM)
MIC (C. difficile strains; strain NR-32892): 4 µg/mL (≈ 12.4 µM)
MIC (C. difficile strains; strain NR-32895): 2 µg/mL (≈ 6.2 µM)
MIC (C. difficile strains; strain NR-32896): 2 µg/mL (≈ 6.2 µM)
MIC (C. difficile strains; strain NR-32897): 2 µg/mL (≈ 6.2 µM)
MIC (C. difficile strains; strain NR-32900): 4 µg/mL (≈ 12.4 µM)
MIC (C. difficile strains; strain NR-32903): 2 µg/mL (≈ 6.2 µM)
MIC (C. difficile strains; strain NR-32904): 2 µg/mL (≈ 6.2 µM)
MIC (C. difficile strains; strain NR-49277): 2 µg/mL (≈ 6.2 µM)
MIC (C. difficile strains; strain NR-49278): 2 µg/mL (≈ 6.2 µM)
MIC (C. difficile strains; strain NR-49279): 2 µg/mL (≈ 6.2 µM)
MIC (C. difficile strains; strain NR-49280): 4 µg/mL (≈ 12.4 µM)
MIC (C. difficile strains; strain NR-49281): 4 µg/mL (≈ 12.4 µM)
MIC (C. difficile strains; strain NR-49282): 4 µg/mL (≈ 12.4 µM)
MIC (C. difficile strains; strain NR-49283): 4 µg/mL (≈ 12.4 µM)
MIC (C. difficile strains; strain NR-49284): 4 µg/mL (≈ 12.4 µM)
MIC (C. difficile strains; strain NR-49285): 2 µg/mL (≈ 6.2 µM)
MIC (C. difficile strains; strain NR-49286): 2 µg/mL (≈ 6.2 µM)
MIC (C. difficile strains; strain NR-49287): 2 µg/mL (≈ 6.2 µM)
MIC (C. difficile strains; strain NR-49288): 2 µg/mL (≈ 6.2 µM)
MIC (C. difficile strains; strain NR-49289): 2 µg/mL (≈ 6.2 µM)
MIC (C. difficile strains; strain NR-49290): 4 µg/mL (≈ 12.4 µM)
MIC (C. difficile strains; strain NR-49291): 2 µg/mL (≈ 6.2 µM)
MIC (C. difficile strains; strain NR-49293): 2 µg/mL (≈ 6.2 µM)
MIC (C. difficile strains; strain NR-49295): 4 µg/mL (≈ 12.4 µM)
MIC (C. difficile strains; strain NR-49296): 4 µg/mL (≈ 12.4 µM)
MIC (C. difficile strains; strain NR-49297): 2 µg/mL (≈ 6.2 µM)
MIC (C. difficile strains; strain NR-49298): 4 µg/mL (≈ 12.4 µM)
MIC (C. difficile strains; strain NR-49299): 2 µg/mL (≈ 6.2 µM)
MIC (C. difficile strains; strain NR-49300): 2 µg/mL (≈ 6.2 µM)
MIC (C. difficile strains; strain NR-49301): 2 µg/mL (≈ 6.2 µM)
MIC (C. difficile strains; strain NR-49303): 2 µg/mL (≈ 6.2 µM)
MIC (C. difficile strains; strain NR-49304): 4 µg/mL (≈ 12.4 µM)
MIC (C. difficile strains; strain NR-49306): 4 µg/mL (≈ 12.4 µM)
MIC (C. difficile strains; strain NR-49307): 4 µg/mL (≈ 12.4 µM)
MIC (C. difficile strains; strain NR-49308): 2 µg/mL (≈ 6.2 µM)
MIC (C. difficile strains; strain NR-49309): 2 µg/mL (≈ 6.2 µM)
MIC (C. difficile strains; strain NR-49311): 2 µg/mL (≈ 6.2 µM)
MIC (C. difficile strains; strain NR-49312): 4 µg/mL (≈ 12.4 µM)
MIC (C. difficile strains; strain NR-49313): 2 µg/mL (≈ 6.2 µM)
MIC (C. difficile strains; strain NR-49314): 2 µg/mL (≈ 6.2 µM)
MIC (C. difficile strains; strain NR-49315): 4 µg/mL (≈ 12.4 µM)
MIC (C. difficile strains; strain NR-49316): 4 µg/mL (≈ 12.4 µM)
MIC (C. difficile strains; strain NR-49317): 4 µg/mL (≈ 12.4 µM)
MIC (C. difficile strains; strain NR-49319): 4 µg/mL (≈ 12.4 µM)
MIC (C. difficile strains; strain NR-49320): 2 µg/mL (≈ 6.2 µM)
MIC (C. difficile strains; strain NR-49321): 4 µg/mL (≈ 12.4 µM)
MIC (C. difficile strains; strain NR-49323): 4 µg/mL (≈ 12.4 µM)
MIC (C. difficile strains; strain NR-49324): 4 µg/mL (≈ 12.4 µM)
MIC (C. difficile strains; strain NR-49325): 4 µg/mL (≈ 12.4 µM)
MIC (C. difficile strains; strain NR-49326): 2 µg/mL (≈ 6.2 µM)
MIC (C. difficile strains; strain NR-49327): 2 µg/mL (≈ 6.2 µM)
MIC (C. difficile strains; strain NR-49328): 2 µg/mL (≈ 6.2 µM)
MIC (C. difficile strains; strain NR-49329): 2 µg/mL (≈ 6.2 µM)
MIC (C. difficile strains; strain RMA23691): 4 µg/mL (≈ 12.4 µM)
MIC (C. difficile strains; strain RMA23828): 4 µg/mL (≈ 12.4 µM)
MIC (C. difficile strains; strain RMA24531): 4 µg/mL (≈ 12.4 µM)
MIC (C. difficile strains; strain RMA24923): 4 µg/mL (≈ 12.4 µM)
MIC (C. difficile strains; strain RMA26675): 4 µg/mL (≈ 12.4 µM)
MIC (C. difficile strains; strain RMA27081): 4 µg/mL (≈ 12.4 µM)
MIC (C. difficile strains; strain RMA27173): 4 µg/mL (≈ 12.4 µM)
MIC (Eubacterium sp. HM-178): 4 µg/mL (≈ 12.4 µM)
MIC (S. aureus): 2 µg/mL (≈ 6.2 µM)
MIC [3]: 2 µg/mL (≈ 6.2 µM)
